Experimental data taken from patent US8685997B2, “Camptothecin derivatives and their use” (Shanghai Institute of Materia Medica, Chinese Academy of …, priority 2006, dated 2014).
Like-named read-outs stand apart in the source and are kept apart here. Values belong to the compound of their own block, whether it stands above or below them.

Columns and labels:
A549 = assay: SRB protein staining tumor cell proliferation assay; assay type: cell-based; details: read-out: IC50(mean ± SD)
Source text: (§1) 1. Sulfonyl rhodamine B (SRB) protein staining assays were used to detect the inhibition of tumor cell proliferation of the compound.

BEL-7402 = assay: as above; assay type: cell-based; details: read-out: IC50(mean ± SD)
Source text: as §1

HCT-15 = assay: as above; assay type: cell-based; details: read-out: IC50(mean ± SD)
Source text: as §1

HL-60 = assay: as above; assay type: cell-based; details: read-out: IC50(mean ± SD)
Source text: as §1

HO-8910 = assay: as above; assay type: cell-based; details: read-out: IC50(mean ± SD)
Source text: as §1

MCF-7 = assay: as above; assay type: cell-based
Source text: as §1

MDA-MB-435 = assay: as above; assay type: cell-based; details: read-out: IC50(mean ± SD)
Source text: as §1

MDA-MB-468 = assay: as above; assay type: cell-based; details: read-out: IC50(mean ± SD)
Source text: as §1

MKN-28 = assay: as above; assay type: cell-based; details: read-out: IC50(mean ± SD)
Source text: as §1

NCI-H23 = assay: as above; assay type: cell-based; details: read-out: IC50(mean ± SD)
Source text: as §1

SGC-7901 = assay: as above; assay type: cell-based; details: read-out: IC50(mean ± SD)
Source text: as §1

SMMC-7721 = assay: as above; assay type: cell-based; details: read-out: IC50(mean ± SD)
Source text: as §1

HCT-116 = assay: as above; assay type: cell-based, human; details: read-out: IC50(mean ± SD)
Source text: as §1

[1] = system: thirteen tumor cell lines; assay: SRB proliferation assay, panel of thirteen tumor cell lines; assay type: cell-based; details: mean over thirteen tumor cell lines
Source text: as §1

[2] = system: human lung cancer SPC-A4 xenografts; assay: Human lung cancer SPC-A4 xenografts in nude mice; details: for Body weight (g) At the beginning / Body weight (g) At the end / RTV / T/C (%) / TV (mm^3) d0 / TV (mm^3) d20: q3w × 3, i.v.
[3] = system: human rectal cancer HCT-116 xenografts; assay: Human rectal cancer HCT-116 xenografts in nude mice; details: for Body weight (g) At the beginning / Body weight (g) At the end / RTV / T/C (%) / TV (mm^3) d0 / TV (mm^3) d21: q3w × 3, i.v.
K562 cell line = assay: Anti-multidrug resistance evaluation, parent cell line; assay type: cell-based; details: Homo sapiens; K562 cells
Source text: (§2) 2. The multidrug resistance cell line K562/A02 and its parent K562 cell line were used to evaluate the anti-multidrug resistance of the CPT-4 active metabolite.

[4] = system: multidrug resistance cell line K562/A02; assay: Anti-multidrug resistance evaluation, multidrug resistance cell line; assay type: cell-based
Source text: as §2

[5] = intravenously, three times per week

Compound: CC[C@@]1(O)C(=O)OCc2c1cc1n(c2=O)Cc2cc3c([N+](=O)[O-])cccc3nc2-1 [9NC, 9-nitrocamptothecin]
IC50 (A549): 31.9 ± 3.72 nM
IC50 (BEL-7402; BEL-7402): 58.8 ± 10.7 nM
IC50 (HCT-15): 9.59 ± 0.48 nM
IC50 (HL-60): 20.6 ± 2.56 nM
IC50 (HO-8910): 227 ± 40.8 nM
IC50 (MCF-7; read-out: IC50(mean ± SD)): 62.6 ± 19.8 nM
IC50 (MDA-MB-435): 18.5 ± 6.14 nM
IC50 (MDA-MB-468): 64.9 ± 29.6 nM
IC50 (MKN-28): 116 ± 6.48 nM
IC50 (NCI-H23): 70.3 ± 14.6 nM
IC50 (SGC-7901): 98 ± 6.87 nM
IC50 (SMMC-7721): 1380 ± 25 nM
IC50 (HCT-116): 13.7 ± 1.4 nM
IC50 [1]: 167 nM

Compound: C=CCc1c(OC(=O)N2CCC(N3CCCCC3)CC2)ccc2nc3c(cc12)Cn1c-3cc2c(c1=O)COC(=O)[C@]2(O)CC [CPT-4, 10-((4′-piperidylpiperidine)carbonyloxy)-9-allylcamptothecin]
Body weight (g) At the beginning ([2]; 3.75 mg/kg): 17.8 g
Body weight (g) At the end ([2]; 3.75 mg/kg): 19.3 g
RTV ([2]; 3.75 mg/kg): 19 ± 5.5
T/C (%) ([2]; 3.75 mg/kg): 41.4%
TV (mm^3) d0 ([2]; 3.75 mg/kg): 104 ± 22 mm^3
TV (mm^3) d20 ([2]; 3.75 mg/kg): 1931 ± 533 mm^3
Body weight (g) At the beginning ([2]; 7.5 mg/kg): 17.5 g
Body weight (g) At the end ([2]; 7.5 mg/kg): 19.3 g
RTV ([2]; 7.5 mg/kg): 14 ± 5.5
T/C (%) ([2]; 7.5 mg/kg): 31.4%
TV (mm^3) d0 ([2]; 7.5 mg/kg): 108 ± 61 mm^3
TV (mm^3) d20 ([2]; 7.5 mg/kg): 1153 ± 172 mm^3
Body weight (g) At the beginning ([2]; 15 mg/kg): 17.3 g
Body weight (g) At the end ([2]; 15 mg/kg): 17.5 g
RTV ([2]; 15 mg/kg): 0.4 ± 0.7
T/C (%) ([2]; 15 mg/kg): 0.88%
TV (mm^3) d0 ([2]; 15 mg/kg): 106 ± 28 mm^3
TV (mm^3) d20 ([2]; 15 mg/kg): 55 ± 99 mm^3
inhibition of growth of tumor xenografts [2, 5]: can significantly inhibit the growth of tumor xenografts
xenograft growth inhibition compared with CPT-11 [2, 5]: equivalent to that of CPT-11
Body weight (g) At the beginning ([3]; 3.75 mg/kg): 20.2 g
Body weight (g) At the end ([3]; 3.75 mg/kg): 17.0 g
RTV ([3]; 3.75 mg/kg): 8.4 ± 2.0
T/C (%) ([3]; 3.75 mg/kg): 18.9%
TV (mm^3) d0 ([3]; 3.75 mg/kg): 92 ± 27 mm^3
TV (mm^3) d21 ([3]; 3.75 mg/kg): 720 ± 75 mm^3
Body weight (g) At the beginning ([3]; 7.5 mg/kg): 19.5 g
Body weight (g) At the end ([3]; 7.5 mg/kg): 17.2 g
RTV ([3]; 7.5 mg/kg): 3.8 ± 2.2
T/C (%) ([3]; 7.5 mg/kg): 8.31%
TV (mm^3) d0 ([3]; 7.5 mg/kg): 94 ± 30 mm^3
TV (mm^3) d21 ([3]; 7.5 mg/kg): 289 ± 108 mm^3
Body weight (g) At the beginning ([3]; 15 mg/kg): 20.3 g
Body weight (g) At the end ([3]; 15 mg/kg): 17.8 g
RTV ([3]; 15 mg/kg): 1.8 ± 0.5
T/C (%) ([3]; 15 mg/kg): 3.99%
TV (mm^3) d0 ([3]; 15 mg/kg): 100 ± 20 mm^3
TV (mm^3) d21 ([3]; 15 mg/kg): 172 ± 51 mm^3
inhibition of growth of tumor xenografts [3, 5]: can significantly inhibit the growth of tumor xenografts
xenograft growth inhibition compared with CPT-11 [3, 5]: equivalent to that of CPT-11

Compound: CCc1c2c(nc3ccc(OC(=O)N4CCC(N5CCCCC5)CC4)cc13)-c1cc3c(c(=O)n1C2)COC(=O)[C@]3(O)CC [CPT-11, Irinotecan]
Body weight (g) At the beginning ([2]; 15 mg/kg): 18.2 g
Body weight (g) At the end ([2]; 15 mg/kg): 18.7 g
RTV ([2]; 15 mg/kg): 0.5 ± 0.5
TV (mm^3) d0 ([2]; 15 mg/kg): 121 ± 34 mm^3
TV (mm^3) d20 ([2]; 15 mg/kg): 55 ± 39 mm^3
Body weight (g) At the end ([3]; 15 mg/kg): 18.3 g
RTV ([3]; 15 mg/kg): 1.9 ± 1.1
TV (mm^3) d0 ([3]; 15 mg/kg): 101 ± 60 mm^3
TV (mm^3) d21 ([3]; 15 mg/kg): 171 ± 86 mm^3

IC50 (A549): 5.9 ± 1.61 nM
IC50 (BEL-7402; BEL-7402): 136 ± 34.7 nM
IC50 (HCT-15): 6.13 ± 4.07 nM
IC50 (HL-60): 6.7 ± 1.26 nM
IC50 (HO-8910): 1120 ± 171 nM
IC50 (MCF-7; read-out: IC50(mean ± SD)): 73 ± 15.6 nM
IC50 (MDA-MB-435): 3.42 ± 1.53 nM
IC50 (MDA-MB-468): 95.6 ± 36.9 nM
IC50 (MKN-28): 303 ± 56 nM
IC50 (NCI-H23): 234 ± 116 nM
IC50 (SGC-7901): 465 ± 75.3 nM
IC50 (SMMC-7721): 379 ± 66.4 nM
IC50 (HCT-116): 12.9 ± 5.4 nM
IC50 [1]: 218 nM
Compound: CCc1c2c(nc3ccc(O)cc13)-c1cc3c(c(=O)n1C2)COC(=O)[C@]3(O)CC [SN38]

IC50 (A549; Homo sapiens): 28.1 ± 6.8 nM
IC50 (BEL-7402; Homo sapiens, Bel-7402): 420 ± 79.7 nM
IC50 (HCT-15; Homo sapiens): 14.4 ± 4.41 nM
IC50 (HL-60; Homo sapiens): 23.3 ± 1.32 nM
IC50 (HO-8910): 1380 ± 44.4 nM
IC50 (MCF-7; Homo sapiens, MCF7, read-out: IC50(mean ± SD)): 387 ± 45.6 nM
IC50 (MDA-MB-435; Homo sapiens): 49.7 ± 6.05 nM
IC50 (MDA-MB-468; Homo sapiens): 176 ± 97.5 nM
IC50 (MKN-28; Homo sapiens): 412 ± 188 nM
IC50 (NCI-H23; Homo sapiens): 122 ± 36.3 nM
IC50 (SGC-7901; Homo sapiens): 489 ± 96.5 nM
IC50 (SMMC-7721; Homo sapiens): 1380 ± 172 nM
IC50 (HCT-116; Homo sapiens): 38 ± 2.19 nM
IC50 [1]: 379 nM
Compound: CC[C@@]1(O)C(=O)OCc2c1cc1n(c2=O)Cc2cc3c(CN(C)C)c(O)ccc3nc2-1 [TPT, Topotecan]

IC50 (K562 cell line): 493 nM
IC50 ([4]; Homo sapiens, K562/A02 cells): 69100 nM
Compound: COc1cccc2c1C(=O)c1c(O)c3c(c(O)c1C2=O)C[C@@](O)(C(=O)CO)C[C@@H]3O[C@H]1C[C@H](N)[C@H](O)[C@H](C)O1 [adriamycin]
Resistance Factor (RF) ([4]; K562/A02 versus K562): 140.24
